The results in this text go back to patent publication US9453226B2, “Protection of cells from Alu-RNA-induced degeneration and inhibitors for protecting cells” (UNIVERSITY OF KENTUCKY RESEARCH FOUNDATION, priority 2011, dated 2016).

The subject of one series is Caspase-8. The series is described as follows: Caspase-8 activation in the RPE of wild-type mice (fluorometric assay). The conditions noted are these: subretinal injection. The series is classed as in vivo. How it is done:
RPE tissues were homogenized in lysis buffer (10 mM Tris base, pH 7.4, 150 mM NaCl, 1 mM EDTA, 1 mM EGTA, 1% Triton X-100, 0.5% NP-40, protease and phosphatase inhibitor cocktail (Roche)). Protein concentrations were determined using a Bradford assay kit (Bio-Rad) with bovine serum albumin as a standard. The […] activity was measured using Caspase-8 Fluorimetric Assay (R&D) in according to the manufacturer's instructions.

Series [1] relates to RPE. In words: RPE degeneration after subretinal delivery in mice (wild-type and deficient strains). The series is classed as in vivo. How it is done:
(§1) Subretinal injection and imaging. Subretinal injections (1 μL) were performed using a Pico-Injector (PLI-100, Harvard Apparatus). Plasmids were transfected in vivo using 10% Neuroporter (Genlantis). Fundus imaging was performed on a TRC-50 IX camera (Topcon) linked to a digital imaging system (Sony). RPE flat mounts were immunolabeled using antibodies against zonula occludens-1 (Invitrogen).
All animal experiments were approved by institutional review committees and in accordance with the Association for Research in Vision and Ophthalmology Statement for the Use of Animals in Ophthalmic and Visual Research. Wild-type C57BL/6J, Cybb^−/−, Tlr3^−1−, Tlr4^−/− (C57BL/10ScNJ), Trif^−/− (Ticam1^Lps2), Ifng^−/−, Ifngr1^−/−, Il1r1^−1−, Il18r1^−1−, Myd88^f/f, and Dicer1^f/f mice were purchased from The Jackson Laboratory. Casp1^−1−, Nbp3^−/−, and Pycard^−/− mice have been previously described (Kanneganti et al., 2006). Unc93b1 mutant mice were generously provided by B. A. Beutler via K. Fitzgerald. Myd88^−/− and Tlr7^−/− mice were generously provided by S. Akira via T. Hawn and D. T. Golenbock. Mda5^−/− mice were generously provided by M. Colonna. […] Mavs^−/− mice were generously provided by Z. Chen via K. Fitzgerald. For all procedures, anesthesia was achieved by intraperitoneal injection of 100 mg/kg ketamine hydrochloride (Ft. Dodge Animal Health) and 10 mg/kg xylazine (Phoenix Scientific), and pupils were dilated with topical 1% tropicamide (Alcon Laboratories).
(§2) Subretinal injections (1 μL) in mice were performed using a Pico-Injector (PLI-100, Harvard Apparatus). In vivo transfection of plasmids coding for two different Alu sequences (pAlu) or empty control vector (pNull) (Bennett et al., 2008; Kaneko et al., 2011; Shaikh et al., 1997) was achieved using 10% Neuroporter (Genlantis). AAV1-BEST1-Cre (Alexander and Hauswirth, 2008) or AAV1-BEST1-GFP were injected at 1.0×10^11 pfu/mL and in vitro transcribed Alu RNA was injected at 0.3 mg/mL.
Bone marrow transplantation was used to create Myd88^−/− chimera mice wherein the genetic deficiency of Myd88 was confined to either circulating cells (Myd88^−/− →WT) or nonhematopoietic tissue (WT→Myd88^−/−). Briefly, bone marrows were collected from femur and tibia of congenic WT or Myd88^−/− donor mice by flushing with RPMI1640. After two washing steps, cells were resuspended in RPMI1640. 1×10^7 cells in 150 μL of RPMI1640 were injected into the tail vein of irradiated […] mice. Two chimera groups were generated: WT→Myd88^−/− (WT cells into Myd88^−/− mice) and Myd88→WT (Myd88 cells into WT mice). 2 months after bone marrow transfer, mice were injected subretinally with Alu RNA, vehicle, pAlu, or pNull, and monitored for RPE degeneration 7 days later. […]

A further series has as its system phagosomal ROS. The series is described as follows: Phagosomal ROS in human RPE cells (Fc OXYBURST Green). The series is classed as cell-based. How it is done: Cellular ROS production was assessed using the ROS-specific probe 2′7′-dichlorodihydrofluorescin diacetate (H2DCFDA, BioChemica, Fluka). Mitochondrial ROS production was assessed using MitoSOX™ Red (Invitrogen). Sub-confluent human RPE cells were transfected with pNull or pAlu. After 24 h cells were loaded for 10 min at 37° C. with 10 μM H2DCFDA or MitoSOX™ Red (Invitrogen) mitochondrial superoxide indicator for live-cell imaging and washed twice with PBS. For H2DCFDA, fluorescence was recorded in 96-well plate using with a Synergy 4 reader (Biotek) using a FITC filter (excitation 485 nm, emission 538 nm). To visualize respiring mitochondria for colocalization with the mitochondrial ROS signal, after PBS wash cells were incubated with MitoTracker Deep Red™ (Invitrogen) for 30 min at 37° C. and then washed twice with PBS. The fluorescent signals were detected using Leica SP-5 or Zeiss Axio Observer Z1 microscopes. Phagosomal ROS production was assessed using the Fc-OXYBURST Green™ assay (Invitrogen). Sub-confluent human RPE cells were transfected with pNull or pAlu, or treated with PMA (0.5 μg/ml; Sigma-Aldrich). […] The total fluorescence from the cells was measured immediately after adding Fc-OXYBURST Green™ with a Synergy 4 reader (Biotek) using FITC filter (excitation 485 nm, emission 538 nm).

For a further series, the system named is MyD88. In words: MyD88 knockdown in mouse RPE cells. The series is classed as cell-based. The conditions noted are these: compared to control siRNA. From the text: Total RNA was extracted from tissues or cells using Trizol reagent (Invitrogen) according to manufacturer's recommendations, DNase treated and reverse transcribed (QuantiTect, Qiagen). The RT products (cDNA) were amplified by real-time quantitative PCR (Applied Biosystems 7900 HT Fast Real-Time PCR system) with Power SYBR green Master Mix. […] For negative controls, no RT products were used as templates in the QPCR and verified by the absence of gel-detected bands. Relative expressions of target genes were determined by the 2^−ΔΔCt method.
Tissues or cells were homogenized in lysis buffer (10 mM Tris base, pH 7.4, 150 mM NaCl, 1 mM EDTA, 1 mM EGTA, 1% Triton X-100, 0.5% NP-40, protease and phosphatase inhibitor cocktail (Roche)). Protein concentrations were determined using a Bradford assay kit (Bio-Rad) with bovine serum albumin as a standard. […] Protein loading was assessed by immunoblotting using an anti-Vinculin antibody (1:1,000; Sigma-Aldrich). […]

The test system of series [2] is RPE. The series is described as follows: pAlu-induced RPE degeneration in wild-type mice, inhibitors given intravitreously. It is filed as in vivo. Conditions: WT mice, subretinal pAlu, inhibitor intravitreous, fundus photographs and ZO-1 flat mounts. How it is done: as §1
Retinal photographs of dilated mouse eyes were taken with a TRC-50 IX camera (Topcon) linked to a digital imaging system (Sony).
Human eyes fixed in 2-4% paraformaldehyde were prepared as eyecups, cryoprotected in 30% sucrose, embedded in optimal cutting temperature compound (Tissue-Tek OCT; Sakura Finetek), and cryosectioned into 10 μm sections. Depigmentation was achieved using 0.25% potassium permanganate and 0.1% oxalic acid. Immunohistochemical staining was performed with the rabbit antibody against NLRP3 (1:100, Sigma Aldrich) or rabbit antibody against Caspase-1 (prediluted, AbCam). Isotype IgG was substituted for the primary antibody to assess the specificity of the staining. Bound antibody was detected with biotin-conjugated secondary antibodies, followed by incubation with ABC reagent and visualized by Vector Blue (Vector Laboratories). Levamisole (Vector Laboratories) was used to block endogenous alkaline phosphatase activity. Slides were washed in PBS, counterstained with neutral red (Fisher Scientific), rinsed with deionized water, air dried, and then mounted in Vectamount (Vector Laboratories). Fluorescent labeling of human tissue was performed with the rabbit antibody against PYCARD (1:50, Clone N-15, Santa Cruz Biotechnology) Immunolabeling was visualized by fluorescently conjugated anti-rabbit secondary antibody (Invitrogen). Tissue autofluorescence was quenched by incubating the sections in 0.3% Sudan black (Fisher Scientific). Sections were mounted in Vectashield with DAPI (Vector Laboratories). Mouse RPE/choroid flat mounts were fixed with 4% paraformaldehyde or 100% methanol, stained with rabbit antibodies against human zonula occludens-1 (1:100, Invitrogen) and visualized with Alexa594 (Invitrogen). All images were obtained using the Leica SP-5 or Zeiss Axio Observer Z1 microscopes.
as §2
siRNAs formulated in siRNA buffer (20 mM KCL, 0.2 mM MgCl2 in HEPES buffer at pH 7.5; Dharmacon) or phosphate buffered saline (PBS; Sigma-Aldrich); the TLR4 antagonist Ultra Pure Rhodobacter sphaeroides LPS (LPS-RS, InvivoGen), a peptide inhibitor of MyD88 homodimerization IMG-2005 (IMGENEX), control inhibitor (IMGENEX), recombinant IL-18 (Medical & Biological Laboratories), neutralizing rat antibodies against mouse IL-1β (IMGENEX), neutralizing rat antibodies against mouse IL-18 (Medical & Biological Laboratories), isotype control IgGs (R&D Systems or eBioscience as appropriate), Caspase-1 inhibitor Z-WEHD-FMK (R&D Systems), Caspase control inhibitor Z-FA-FMK (R&D Systems), DPI (Enzo Life Sciences), Mito-TEMPO (Enzo Life Sciences), MitoQ and dTPP (both adsorbed to cyclodextrin and provided by M.P. Murphy, MRC Mitochondrial Biology Unit), and gp91ds-tat and scrambled gp91 ds-tat (both Anaspec), were dissolved in phosphate buffered saline (PBS; Sigma-Aldrich) or dimethyl sulfoxide (DMSO; Sigma-Aldrich), and injected into the vitreous humor in a total volume of 1 μL with a 33-gauge Exmire microsyringe (Ito Corporation). […] As a control, Luc siRNA-chol (17+2 nt) was used with identical dosages. […]

As for “Recombinant IL-18: recombinant IL-18 (Medical & Biological Laboratories)”, the results for the “activation of Caspase-8” value in the series on Caspase-8 (listed as IL-18) and in the series on Caspase-8 (listed as recombinant IL-18) were “induced activation of caspase-8” and “induced activation of Caspase-8”, respectively. Also, the “RPE degeneration after subretinal delivery” value in the series with RPE [1] (CD95−/− (Fas lpr) mice) is on record as “did not induce RPE degeneration”; in the series with RPE [1] (Casp1−/− mice), “induced RPE degeneration”; in the series on RPE [1] (Faslg−/− (Fasl gld) mice) it was “did not induce RPE degeneration”; in the series on RPE [1] (WT mice), “induced RPE degeneration”.
On to `CCCCCCCCCCCCCC(=O)O[C@@H]1[C@@H](C)[C@@]2(O)[C@@H](C=C(CO)C[C@]3(O)C(=O)C(C)=C[C@@H]23)[C@@H]2C(C)(C)[C@]12OC(C)=O` [PMA, phorbol myristate acetate], for which the “phagosomal ROS” value with phagosomal ROS was “induced phagosomal ROS”.
For the compound “5′-CAGAGCAAGGAAUGUGAdTdT-3′ [cholesterol-conjugated Myd88 siRNA]”, the “target gene and protein abundance (MyD88)” value with MyD88 is recorded as “reduces”. In addition, the “pAlu-induced RPE degeneration” value is listed as “inhibited” in the series on RPE [2] and “inhibited RPE degeneration” in the series with RPE [2] (listed as MyD88-targeting short interfering RNA).
